# Assay results reported in ChEMBL document CHEMBL1201861, “Genomics of Drug Sensitity in Cancer screening data, Wellcome Trust Sanger Institute”.
# Key:
# Test in all cases: cells
# Format in all cases: functional, cell-based, Homo sapiens
# MONO-MAC-6 = conditions: Homo sapiens, MONO-MAC-6;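 note: cell viability assay measuring growth inhibition of human MONO-MAC-6 cells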
# Description: SANGER: Inhibition of human MONO-MAC-6 cell growth in a cell viability assay.
# SIMA = conditions: Homo sapiens, SIMA;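 note: growth inhibition of SIMA cells, measured with a cell viability readout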
# Description: SANGER: Inhibition of human SIMA cell growth in a cell viability assay.
# LC4-1 = conditions: Homo sapiens, LC4-1;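 note: growth inhibition of LC4-1 cells, read out with a cell viability assay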
# Description: SANGER: Inhibition of human LC4-1 cell growth in a cell viability assay.
# LOUCY = conditions: Homo sapiens, LOUCY;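 note: growth inhibition of human LOUCY cells, read out with a cell viability assay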
# Description: SANGER: Inhibition of human LOUCY cell growth in a cell viability assay.
# SK-MM-2 = conditions: Homo sapiens, SK-MM-2;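 note: growth inhibition of human SK-MM-2 cells, read out with a cell viability assay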
# Description: SANGER: Inhibition of human SK-MM-2 cell growth in a cell viability assay.
# NALM-6 = conditions: Homo sapiens, NALM-6;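 note: growth inhibition of NALM-6 cells, read out with a cell viability assay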
# Description: SANGER: Inhibition of human NALM-6 cell growth in a cell viability assay.
# TALL-1 = conditions: Homo sapiens, TALL-1;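 note: growth inhibition of cultured human TALL-1 cells, read out by a cell viability assay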
# Description: SANGER: Inhibition of human TALL-1 cell growth in a cell viability assay.
# CAL-148 = conditions: Homo sapiens, CAL-148
# Description: SANGER: Inhibition of human CAL-148 cell growth in a cell viability assay.
SMILES,IC50 (MONO-MAC-6) [nM],IC50 (SIMA) [nM],IC50 (LC4-1) [nM],IC50 (LOUCY) [nM],IC50 (SK-MM-2) [nM],IC50 (NALM-6) [nM],IC50 (TALL-1) [nM],IC50 (CAL-148) [nM]
C#Cc1cccc(Nc2ncnc3cc(OCCOC)c(OCCOC)cc23)c1 [ERLOTINIB],> 2000,> 2000,> 2000,> 2000,> 2000,,,
COc1cc(-c2nn([C@H]3CC[C@H](N4CCN(C(C)=O)CC4)CC3)c3ncnc(N)c23)ccc1NC(=O)c1cc2ccccc2n1C,> 5120,> 5120,> 5120,> 5120,> 5120,2240,> 5120,> 5120
CC(=O)O[C@H]1C(=O)[C@@]2(C)[C@H]([C@H](OC(=O)c3ccccc3)[C@]3(O)C[C@H](OC(=O)[C@H](O)[C@@H](NC(=O)c4ccccc4)c4ccccc4)C(C)=C1C3(C)C)[C@]1(OC(C)=O)CO[C@@H]1C[C@@H]2O [PACLITAXEL],30.2,> 102,43.5,7.75,> 102,12.1,50.4,54.4
CCN(CC)CCNC(=O)c1c(C)[nH]c(/C=C2\C(=O)Nc3ccc(F)cc32)c1C [SUNITINIB],33.8,> 8000,4380,> 8000,5480,2900,> 8000,> 8000
COc1cc(N2CCN(C)CC2)ccc1Nc1ncc2c(n1)N(C)c1ccccc1C(=O)N2C,> 8000,> 8000,4020,> 8000,2590,4960,> 8000,> 8000
COc1cc2ncn(-c3cc(OCc4ccccc4S(C)(=O)=O)c(C#N)s3)c2cc1OC [GSK-319347A],> 5000,> 5000,> 5000,> 5000,> 5000,> 5000,> 5000,> 5000
Cc1ccc(-c2c(C(=O)CCl)n(CCCO)c3ncnc(N)c23)cc1,3930,> 4000,> 4000,> 4000,> 4000,> 4000,> 4000,> 4000
OCCCNc1cc(-c2ccnc(Nc3cccc(Cl)c3)n2)ccn1,85.9,> 256,71.3,62.2,124,46.8,94.1,199
CC[C@H](CO)Nc1nc(NCc2ccccc2)c2ncn(C(C)C)c2n1 [SELICICLIB],> 16000,> 16000,> 16000,> 16000,> 16000,> 16000,> 16000,> 16000
COc1cc2ncn(-c3cc(OCc4ccccc4C(F)(F)F)c(C(N)=O)s3)c2cc1OC [GW843682X],34.6,> 256,54.5,15.9,> 256,24.5,13,90.7
N[C@@H](CSC(c1ccccc1)(c1ccccc1)c1ccccc1)C(=O)O [S-TRITYL-L-CYSTEINE],1150,> 5120,2020,480,> 5120,676,2530,4350
